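Grown in 96-well plates, cells were treated for 48 hours with each compound at five concentrations. Insufficient inhibition: endpoint recorded as highest concentration tested. GI50 = concentration required for 50% inhibition of growth. TGI is the concentration that stops growth completely.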
How the values were obtained:
Assay in all cases: NCI tumour cell line growth inhibition, 48 h
786-0 renal = test system: 786-0 renal
A498 renal = test system: A498 renal
A549 NSCLC = test system: A549 NSCLC
ACHN renal = test system: ACHN renal
BT-549 breast = test system: BT-549 breast
CAKI-1 renal = test system: CAKI-1 renal
CCRF-CEM leukemia = test system: CCRF-CEM leukemia
COLO 205 colon = test system: COLO 205 colon
DU-145 prostate = test system: DU-145 prostate
HCC-2998 colon = test system: HCC-2998 colon
HCT-116 colon = test system: HCT-116 colon
HCT-15 colon = test system: HCT-15 colon
HL-60(TB) leukemia = test system: HL-60(TB) leukemia
HOP-62 NSCLC = test system: HOP-62 NSCLC
HOP-92 NSCLC = test system: HOP-92 NSCLC
HS 578T breast = test system: HS 578T breast
HT29 colon = test system: HT29 colon
IGROV1 ovarian = test system: IGROV1 ovarian
K-562 leukemia = test system: K-562 leukemia
KM12 colon = test system: KM12 colon
LOX IMVI melanoma = test system: LOX IMVI melanoma
M14 melanoma = test system: M14 melanoma
MALME-3M melanoma = test system: MALME-3M melanoma
MCF7 breast = test system: MCF7 breast
MDA-MB-231 breast = test system: MDA-MB-231 breast
MDA-MB-435 = test system: MDA-MB-435
MOLT-4 leukemia = test system: MOLT-4 leukemia
NCI-H226 lung = test system: NCI-H226 lung
NCI-H23 lung = test system: NCI-H23 lung
NCI-H460 lung = test system: NCI-H460 lung
NCI-H522 lung = test system: NCI-H522 lung
NCI/ADR-RES ovarian = test system: NCI/ADR-RES ovarian
OVCAR-3 ovarian = test system: OVCAR-3 ovarian
OVCAR-4 ovarian = test system: OVCAR-4 ovarian
OVCAR-5 ovarian = test system: OVCAR-5 ovarian
OVCAR-8 ovarian = test system: OVCAR-8 ovarian
PC-3 prostate = test system: PC-3 prostate
RPMI-8226 leukemia = test system: RPMI-8226 leukemia
RXF 393 renal = test system: RXF 393 renal
SF-268 CNS = test system: SF-268 CNS
SF-295 CNS = test system: SF-295 CNS
SF-539 CNS = test system: SF-539 CNS
SK-MEL-2 melanoma = test system: SK-MEL-2 melanoma
SK-MEL-28 melanoma = test system: SK-MEL-28 melanoma
SK-MEL-5 melanoma = test system: SK-MEL-5 melanoma
SK-OV-3 ovarian = test system: SK-OV-3 ovarian
SN12C renal = test system: SN12C renal
SNB-19 CNS = test system: SNB-19 CNS
SNB-75 CNS = test system: SNB-75 CNS
SR leukemia = test system: SR leukemia
SW-620 colon = test system: SW-620 colon
TK-10 renal = test system: TK-10 renal
U251 CNS = test system: U251 CNS
UACC-257 melanoma = test system: UACC-257 melanoma
UACC-62 melanoma = test system: UACC-62 melanoma
UO-31 renal = test system: UO-31 renal

O=C1c2ccccc2CCC1(Br)Br
GI50 (786-0 renal): 2.21 µM
TGI (786-0 renal): 4.55 µM
GI50 (A498 renal): 7.69 µM
TGI (A498 renal): 20.9 µM
GI50 (A549 NSCLC): 6.84 µM
TGI (A549 NSCLC): 19.1 µM
GI50 (ACHN renal): 1.21 µM
TGI (ACHN renal): 2.55 µM
GI50 (BT-549 breast): 2 µM
TGI (BT-549 breast): 4.96 µM
GI50 (CAKI-1 renal): 1.65 µM
TGI (CAKI-1 renal): 3.04 µM
GI50 (CCRF-CEM leukemia): 0.365 µM
TGI (CCRF-CEM leukemia): 2.01 µM
GI50 (COLO 205 colon): 0.671 µM
TGI (COLO 205 colon): 2.06 µM
GI50 (DU-145 prostate): 3.73 µM
TGI (DU-145 prostate): 12 µM
GI50 (HCC-2998 colon): 3.88 µM
TGI (HCC-2998 colon): 9.19 µM
GI50 (HCT-116 colon): 0.888 µM
TGI (HCT-116 colon): 2.23 µM
GI50 (HCT-15 colon): 0.743 µM
TGI (HCT-15 colon): 2.24 µM
GI50 (HL-60(TB) leukemia): 2.04 µM
TGI (HL-60(TB) leukemia): 5.22 µM
GI50 (HOP-62 NSCLC): 6.32 µM
TGI (HOP-62 NSCLC): 17.8 µM
GI50 (HOP-92 NSCLC): 1.27 µM
TGI (HOP-92 NSCLC): 2.58 µM
GI50 (HS 578T breast): 4.08 µM
TGI (HS 578T breast): > 26.9 µM
GI50 (HT29 colon): 2.28 µM
TGI (HT29 colon): 4.43 µM
GI50 (IGROV1 ovarian): 2.59 µM
TGI (IGROV1 ovarian): 5.98 µM
GI50 (K-562 leukemia): 0.357 µM
TGI (K-562 leukemia): 2.02 µM
GI50 (KM12 colon): 4.34 µM
TGI (KM12 colon): 15 µM
GI50 (LOX IMVI melanoma): 1.48 µM
TGI (LOX IMVI melanoma): 2.9 µM
GI50 (M14 melanoma): 2.08 µM
TGI (M14 melanoma): 5.12 µM
GI50 (MALME-3M melanoma): 1.06 µM
TGI (MALME-3M melanoma): 2.75 µM
GI50 (MCF7 breast): 1.56 µM
TGI (MCF7 breast): 3.89 µM
GI50 (MDA-MB-231 breast): 1.97 µM
TGI (MDA-MB-231 breast): 4.72 µM
GI50 (MDA-MB-435): 2.34 µM
TGI (MDA-MB-435): 6.53 µM
GI50 (MOLT-4 leukemia): 0.631 µM
TGI (MOLT-4 leukemia): 3.94 µM
GI50 (NCI-H226 lung): 1.98 µM
TGI (NCI-H226 lung): 4.56 µM
GI50 (NCI-H23 lung): 1.99 µM
TGI (NCI-H23 lung): 4.9 µM
GI50 (NCI-H460 lung): 5.28 µM
TGI (NCI-H460 lung): 18.7 µM
GI50 (NCI-H522 lung): 0.293 µM
TGI (NCI-H522 lung): 0.793 µM
GI50 (NCI/ADR-RES ovarian): 3.4 µM
TGI (NCI/ADR-RES ovarian): 17.3 µM
GI50 (OVCAR-3 ovarian): 1.75 µM
TGI (OVCAR-3 ovarian): 3.17 µM
GI50 (OVCAR-4 ovarian): 1.48 µM
TGI (OVCAR-4 ovarian): 2.97 µM
GI50 (OVCAR-5 ovarian): 1.76 µM
TGI (OVCAR-5 ovarian): 3.25 µM
GI50 (OVCAR-8 ovarian): 2.36 µM
TGI (OVCAR-8 ovarian): 6.04 µM
GI50 (PC-3 prostate): 4.14 µM
TGI (PC-3 prostate): 16.9 µM
GI50 (RPMI-8226 leukemia): 1.99 µM
TGI (RPMI-8226 leukemia): 4.9 µM
GI50 (RXF 393 renal): 1.68 µM
TGI (RXF 393 renal): 3.32 µM
GI50 (SF-268 CNS): 4.1 µM
TGI (SF-268 CNS): 14.1 µM
GI50 (SF-295 CNS): 14.6 µM
TGI (SF-295 CNS): 28 µM
GI50 (SF-539 CNS): 1.88 µM
TGI (SF-539 CNS): 3.74 µM
GI50 (SK-MEL-2 melanoma): 3.13 µM
TGI (SK-MEL-2 melanoma): 11.3 µM
GI50 (SK-MEL-28 melanoma): 2.08 µM
TGI (SK-MEL-28 melanoma): 4.65 µM
GI50 (SK-MEL-5 melanoma): 2.32 µM
TGI (SK-MEL-5 melanoma): 5.87 µM
GI50 (SK-OV-3 ovarian): 6.12 µM
TGI (SK-OV-3 ovarian): 18.2 µM
GI50 (SN12C renal): 2.18 µM
TGI (SN12C renal): 5.37 µM
GI50 (SNB-19 CNS): 10.4 µM
TGI (SNB-19 CNS): 23.2 µM
GI50 (SNB-75 CNS): 3.23 µM
TGI (SNB-75 CNS): 16.2 µM
GI50 (SR leukemia): 0.67 µM
TGI (SR leukemia): 3.9 µM
GI50 (SW-620 colon): 0.384 µM
TGI (SW-620 colon): 1.53 µM
GI50 (TK-10 renal): 1.5 µM
TGI (TK-10 renal): 2.88 µM
GI50 (U251 CNS): 5.67 µM
TGI (U251 CNS): 15.9 µM
GI50 (UACC-257 melanoma): 1.88 µM
TGI (UACC-257 melanoma): 4.98 µM
GI50 (UACC-62 melanoma): 1.96 µM
TGI (UACC-62 melanoma): 4.54 µM
GI50 (UO-31 renal): 1.27 µM
TGI (UO-31 renal): 2.6 µM

From PubChem BioAssay (NCI)
